target: Recombinant human cathepsin S (CatS) (Homo sapiens, UniProt P25774); assay: Recombinant human cathepsin S (CatS) inhibition assay, fluorogenic substrate Z-Valine-Valine-Arginine-AMC; details: not given;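 further: Baculovirus-expressed CatS in pH 5.0 sodium acetate buffer with DTT and NaCl, fluorescence read each minute over 20 min, inhibition derived from rate slope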
Sequence (P25774 115-331): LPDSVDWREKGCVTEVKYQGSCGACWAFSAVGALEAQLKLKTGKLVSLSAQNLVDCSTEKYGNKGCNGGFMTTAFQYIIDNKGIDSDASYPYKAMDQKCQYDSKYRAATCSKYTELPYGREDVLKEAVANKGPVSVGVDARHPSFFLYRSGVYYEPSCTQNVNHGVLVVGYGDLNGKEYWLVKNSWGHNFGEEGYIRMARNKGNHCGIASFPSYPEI

Row | SMILES | IC50 [nM]
1 | Cc1ccccc1CCc1cc(-c2nn(CCCN3CCOCC3)c3c2CN(S(C)(=O)=O)CC3)ccc1Cl [Example 60, 3-[4-Chloro-3-(2-o-tolyl-ethyl)-phenyl]-5-methanesulfonyl-1-(3-morpholin-4-yl-propyl)-4,5,6,7-tetrahydro-1H-pyrazolo[4,3-c]pyridine] | 880
2 | NC(=O)N1CCc2c(c(-c3ccc(Cl)c(C#Cc4ccc(C(=O)NC[C@@H]5CCCN5)cc4)c3)nn2CCCN2CCSCC2)C1 [Example 609, 3-{4-Chloro-3-[(4-{[(2S)-pyrrolidin-2-ylmethyl]carbamoyl}phenyl)ethynyl]phenyl}-1-(3-thiomorpholin-4-ylpropyl)-1,4,6,7-tetrahydro-5H-pyrazolo[4,3-c]pyridine-5-carboxamide] | 70
3 | CS(=O)(=O)N1CCc2c(c(-c3ccc(Cl)c(C#CCO)c3)nn2CCCN2CCC(N3CCCC3=O)CC2)C1 [Example 310, 1-[1-(3-{3-[4-Chloro-3-(3-hydroxyprop-1-yn-1-yl)phenyl]-5-(methylsulfonyl)-4,5,6,7-tetrahydro-1H-pyrazolo[4,3-c]pyridin-1-yl}propyl)piperidin-4-yl]pyrrolidin-2-one] | 2120
4 | CN1CCN(CCCc2cc(-c3nn(CCCN4CCC(N5CCCC5=O)CC4)c4c3CN(S(C)(=O)=O)CC4)ccc2Cl)CC1 [Example 106, 1-{1-[3-(3-{4-Chloro-3-[3-(4-methyl-piperazin-1-yl)-propyl]-phenyl}-5-methanesulfonyl-4,5,6,7-tetrahydro-pyrazolo[4,3-c]pyridin-1-yl)-propyl]-piperidin-4-yl}-pyrrolidin-2-one] | 4420
5 | CS(=O)(=O)N1CCc2c(c(-c3ccc(Cl)c(C#Cc4ccc5c(c4)CNCC5)c3)nn2CCCN2CCOCC2)C1 [Example 360, 7-({2-Chloro-5-[5-(methylsulfonyl)-1-(3-morpholin-4-ylpropyl)-4,5,6,7-tetrahydro-1H-pyrazolo[4,3-c]pyridin-3-yl]phenyl}ethynyl)-1,2,3,4-tetrahydroisoquinoline] | 170
6 | C[C@H]1COCCN1CCCn1nc(-c2ccc(Cl)c(C#Cc3ccc4c(c3)CN(C3CC3)CC4)c2)c2c1CCN(C(N)=O)C2 [Example 282, 3-{4-Chloro-3-[(2-cyclopropyl-1,2,3,4-tetrahydroisoquinolin-7-yl)ethynyl]phenyl}-1-{3-[(3S)-3-methylmorpholin-4-yl]propyl}-1,4,6,7-tetrahydro-5H-pyrazolo[4,3-c]pyridine-5-carboxamide] | 150
7 | COc1ccc(C#Cc2cc(-c3nn(CCCN4CCOCC4)c4c3CN(S(C)(=O)=O)CC4)ccc2Cl)cc1CNCc1ccccc1 [Example 540, 1-[5-({2-Chloro-5-[5-(methylsulfonyl)-1-(3-morpholin-4-ylpropyl)-4,5,6,7-tetrahydro-1H-pyrazolo[4,3-c]pyridin-3-yl]phenyl}ethynyl)-2-(methyloxy)phenyl]-N-(phenylmethyl)methanamine] | 140
8 | C[C@H]1COCCN1CCCn1nc(-c2ccc(Cl)c(C#Cc3ccc(Cl)c(CNCc4ccccc4)c3)c2)c2c1CCN(C(=O)C(N)=O)C2 [Example 285, 2-(3-{4-Chloro-3-[(4-chloro-3-{[(phenylmethyl)amino]methyl}phenyl)ethynyl]phenyl}-1-{3-[(3S)-3-methylmorpholin-4-yl]propyl}-1,4,6,7-tetrahydro-5H-pyrazolo[4,3-c]pyridin-5-yl)-2-oxoacetamide] | 20
9 | NC(=O)N1CCc2c(c(-c3ccc(Cl)c(C#Cc4ccc(Cl)c(C(=O)NCCN5CCOCC5)c4)c3)nn2CCCN2CCSCC2)C1 [Example 585, 3-[4-Chloro-3-({4-chloro-3-[(2-morpholin-4-ylethyl)carbamoyl]phenyl}ethynyl)phenyl]-1-(3-thiomorpholin-4-ylpropyl)-1,4,6,7-tetrahydro-5H-pyrazolo[4,3-c]pyridine-5-carboxamide] | 40
10 | CS(=O)(=O)N1CCc2c(c(-c3ccc(Cl)c(C#Cc4cccc(CNCC5CCCO5)c4)c3)nn2CCCN2CCOCC2)C1 (centres unmarked) [Example 510, 1-[3-({2-Chloro-5-[5-(methylsulfonyl)-1-(3-morpholin-4-ylpropyl)-4,5,6,7-tetrahydro-1H-pyrazolo[4,3-c]pyridin-3-yl]phenyl}ethynyl)phenyl]-N-(tetrahydrofuran-2-ylmethyl)methanamine] | 450
11 | C[C@H]1COCCN1CCCn1nc(-c2ccc(Cl)c(C#Cc3ccc(Cl)c(CNC[C@H]4CCCO4)c3)c2)c2c1CCN(C(=O)C(N)=O)C2 [Example 268, 2-{3-[4-Chloro-3-(4-chloro-3-{[((2R)-tetrahydro-furan-2-ylmethyl)-amino]-methyl}-phenylethynyl)-phenyl]-1-[3-((3S)-3-methyl-morpholin-4-yl)-propyl]-1,4,6,7-tetrahydro-pyrazolo[4,3-c]pyridin-5-yl}-2-oxo-acetamide] | 20
12 | CN1CCN(CCCCc2cc(-c3nn(CCCN4CCC(N5CCCC5=O)CC4)c4c3CN(S(C)(=O)=O)CC4)ccc2Cl)CC1 [Example 112, 1-{1-[3-(3-{4-Chloro-3-[4-(4-methyl-piperazin-1-yl)-butyl]-phenyl}-5-methanesulfonyl-4,5,6,7-tetrahydro-pyrazolo[4,3-c]pyridin-1-yl)-propyl]-piperidin-4-yl}-pyrrolidin-2-one] | 4920
13 | CC(C)(C)OC(=O)N1CCc2ccc(C#Cc3cc(-c4nn(CCCN5CCOCC5)c5c4CN(S(C)(=O)=O)CC5)ccc3Cl)cc2C1 [Example 370, 1,1-Dimethylethyl 7-({2-chloro-5-[5-(methylsulfonyl)-1-(3-morpholin-4-ylpropyl)-4,5,6,7-tetrahydro-1H-pyrazolo[4,3-c]pyridin-3-yl]phenyl}ethynyl)-3,4-dihydroisoquinoline-2(1H)-carboxylate] | 720
14 | CS(=O)(=O)N1CCc2c(c(-c3ccc(Cl)c(C#CCc4ccccc4)c3)nn2C[C@@H](O)CN2CCC(C3CCNCC3)CC2)C1 [Example 474, (2S)-1-(4,4′-Bipiperidin-1-yl)-3-{3-[4-chloro-3-(3-phenylprop-1-yn-1-yl)phenyl]-5-(methylsulfonyl)-4,5,6,7-tetrahydro-1H-pyrazolo[4,3-c]pyridin-1-yl}propan-2-ol] | 430

same assay, conditions: CatS IC50

Row | SMILES | IC50 [nM]
15 | CS(=O)(=O)N1CCc2c(c(-c3ccc(Cl)c(C#Cc4cccc(CNCc5ccc(Cl)cc5)c4)c3)nn2CCCN2CCN(c3ccccn3)CC2)C1 [Example 447, 1-{3-[(2-Chloro-5-{5-(methylsulfonyl)-1-[3-(4-pyridin-2-ylpiperazin-1-yl)propyl]-4,5,6,7-tetrahydro-1H-pyrazolo[4,3-c]pyridin-3-yl}phenyl)ethynyl]phenyl}-N-[(4-chlorophenyl)methyl]methanamine] | 70
16 | NC(=O)N1CCc2c(c(-c3ccc(Cl)c(C#Cc4ccc(C(=O)N5CC[C@@H](O)C5)cc4)c3)nn2CCCN2CCSCC2)C1 [Example 552, 3-{4-Chloro-3-[(4-{[(3R)-3-hydroxypyrrolidin-1-yl]carbonyl}phenyl)ethynyl]phenyl}-1-(3-thiomorpholin-4-ylpropyl)-1,4,6,7-tetrahydro-5H-pyrazolo[4,3-c]pyridine-5-carboxamide] | 500
17 | NC(=O)C(=O)N1CCc2c(c(-c3ccc(Cl)c(C#Cc4ccc(CNCc5ccc(Cl)cc5)cc4)c3)nn2CCCN2CCC(C(N)=O)CC2)C1 [Example 450, 1-(3-{5-[Amino(oxo)acetyl]-3-(4-chloro-3-{[4-({[(4-chlorophenyl)methyl]amino}methyl)phenyl]ethynyl}phenyl)-4,5,6,7-tetrahydro-1H-pyrazolo[4,3-c]pyridin-1-yl}propyl)piperidine-4-carboxamide] | 70
18 | NC(=O)N1CCc2c(c(-c3ccc(Cl)c(C#Cc4ccc(CNCc5ccccc5F)cc4)c3)nn2CCCN2CCSCC2)C1 [Example 542, 3-(4-Chloro-3-{[4-({[(2-fluorophenyl)methyl]amino}methyl)phenyl]ethynyl}phenyl)-1-(3-thiomorpholin-4-ylpropyl)-1,4,6,7-tetrahydro-5H-pyrazolo[4,3-c]pyridine-5-carboxamide] | 180
19 | CC(C)Oc1ccc(CNCc2ccc(C#Cc3cc(-c4nn(CCCN5CCSCC5)c5c4CN(C(N)=O)CC5)ccc3Cl)cc2)cc1 [Example 174, 3-{4-Chloro-3-[(4-{[({4-[(1-methylethyl)oxy]phenyl}methyl)amino]methyl}phenyl)ethynyl]phenyl}-1-(3-thiomorpholin-4-ylpropyl)-1,4,6,7-tetrahydro-5H-pyrazolo[4,3-c]pyridine-5-carboxamide] | 270
20 | CS(=O)(=O)N1CCc2c(c(-c3ccc(Cl)c(C#Cc4ccc(CNCc5ccsc5)cc4)c3)nn2CCCN2CCOCC2)C1 [Example 422, 1-[4-({2-Chloro-5-[5-(methylsulfonyl)-1-(3-morpholin-4-ylpropyl)-4,5,6,7-tetrahydro-1H-pyrazolo[4,3-c]pyridin-3-yl]phenyl}ethynyl)phenyl]-N-(3-thienylmethyl)methanamine] | 170
21 | CC(C)(C)OC(=O)N1CCN(CCCn2nc(-c3ccc(Cl)c(C#Cc4ccc(CNCc5ccc(Cl)cc5)cc4)c3)c3c2CCN(S(C)(=O)=O)C3)CC1 [Example 367, 1,1-Dimethylethyl 4-{3-[3-(4-chloro-3-{[4-({[(4-chlorophenyl)methyl]amino}methyl)phenyl]ethynyl}phenyl)-5-(methylsulfonyl)-4,5,6,7-tetrahydro-1H-pyrazolo[4,3-c]pyridin-1-yl]propyl}piperazine-1-carboxylate] | 90
22 | CS(=O)(=O)N1CCc2c(c(-c3ccc(Cl)c(C#Cc4ccc(CNCc5ccc(Cl)cc5)cc4)c3)nn2CCCN2CCCC2)C1 [Example 333, 1-[4-({2-Chloro-5-[5-(methylsulfonyl)-1-(3-pyrrolidin-1-ylpropyl)-4,5,6,7-tetrahydro-1H-pyrazolo[4,3-c]pyridin-3-yl]phenyl}ethynyl)phenyl]-N-[(4-chlorophenyl)methyl]methanamine] | 180
23 | C[C@H]1COCCN1CCCn1nc(-c2ccc(Cl)c(C#Cc3ccc(CNCc4ccsc4)cc3)c2)c2c1CCN(S(C)(=O)=O)C2 [Example 434, 1-[4-({2-Chloro-5-[1-{3-[(3S)-3-methylmorpholin-4-yl]propyl}-5-(methylsulfonyl)-4,5,6,7-tetrahydro-1H-pyrazolo[4,3-c]pyridin-3-yl]phenyl}ethynyl)phenyl]-N-(3-thienylmethyl)methanamine] | 200
